Experimental data: US4001418A, “1'-Substituted-thioxanthene-9-spiro-4'-piperidine derivatives and the 10-oxides and 10,10-dioxides thereof” (priority 1974, dated 1977)

How the values were obtained:
oral LD50 in mice = settings: mouse, in vivo
intravenous LD50 = settings: mouse, in vivo
Experimental: The corresponding intravenous LD50 is 30 mg./kg. Other LD50 values for compounds of the invention when dosed intravenously are as follows: […]

## CN1CCC2(CC1)c1ccccc1Sc1c(O)cccc12 [4-hydroxy-1'-methylthioxanthene-9-spiro-4'-piperidine]
Oral LD50 in mice
  LD50: > 500 mg/kg
Intravenous LD50; mice, read-out: intravenous LD50
  LD50: 30 mg/kg

## CCCN1CCC2(CC1)c1ccccc1Sc1c(O)cccc12 [n-Pr 4-OH H H H S]
Intravenous LD50; table 1, read-out: LD50
  LD50: 35 mg/kg

## CC(=O)Oc1cccc2c1Sc1cc(Cl)ccc1C21CCN(C)CC1 [Me 4-OAc H 6-Cl H S]
Intravenous LD50; table 1, read-out: LD50
  LD50: > 50 mg/kg

## C=CCN1CCC2(CC1)c1ccccc1Sc1c(O)cccc12 [Allyl 4-OH H H H S, 4-hydroxy-1'-allylthioxanthene-9-spiro-4'-piperidine]
Intravenous LD50; table 1, read-out: LD50
  LD50: 43 mg/kg
